Measurements taken from PubChem BioAssay AID2060899 (Molecular Pharmacology Branch, DTP, NCI, 2025).

Test system: 565726-208-R1-J5-PDC complex spheroids, growth inhibition
Test: Anticancer human tumor 565726-208-R1-J5-PDC patient-derived pancreatic adenocarcinoma cell line growth inhibition [RAS]
Settings: for viability, T/C: stronger effect = lower value
Procedure, shortened: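 Multi-cell-type spheroids: tumor cells plus HUVEC endothelial cells and mesenchymal stem cells. RAS-pathway inhibitors were combined with targeted agents, each dosed in half-log steps down from clinical Cmax, or from 10 microM when Cmax was unknown.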

[1] = curve of first compound, second compound 0.0316 µM
[2] = curve of first compound, second compound 0.1 µM
[3] = curve of first compound, second compound 0.316 µM
[4] = curve of first compound, second compound 1 µM
[5] = curve of first compound, second compound 3.16 µM
[6] = curve of first compound, second compound 10 µM
[7] = second compound 0.0316 µM, first compound 0.0316 µM
[8] = second compound 0.0316 µM, first compound 0.1 µM
[9] = second compound 0.0316 µM, first compound 0.316 µM
[10] = second compound 0.0316 µM, first compound 1 µM
[11] = second compound 0.0316 µM, first compound 3.16 µM
[12] = second compound 0.0316 µM, first compound 10 µM
[13] = second compound 0.1 µM, first compound 0.0316 µM
[14] = second compound 0.1 µM, first compound 0.1 µM
[15] = second compound 0.1 µM, first compound 0.316 µM
[16] = second compound 0.1 µM, first compound 1 µM
[17] = second compound 0.1 µM, first compound 3.16 µM
[18] = second compound 0.1 µM, first compound 10 µM
[19] = second compound 0.316 µM, first compound 0.0316 µM
[20] = second compound 0.316 µM, first compound 0.1 µM
[21] = second compound 0.316 µM, first compound 0.316 µM
[22] = second compound 0.316 µM, first compound 1 µM
[23] = second compound 0.316 µM, first compound 3.16 µM
[24] = second compound 0.316 µM, first compound 10 µM
[25] = second compound 1 µM, first compound 0.0316 µM
[26] = second compound 1 µM, first compound 0.1 µM
[27] = second compound 1 µM, first compound 0.316 µM
[28] = second compound 1 µM, first compound 1 µM
[29] = second compound 1 µM, first compound 3.16 µM
[30] = second compound 1 µM, first compound 10 µM
[31] = second compound 3.16 µM, first compound 0.0316 µM
[32] = second compound 3.16 µM, first compound 0.1 µM
[33] = second compound 3.16 µM, first compound 0.316 µM
[34] = second compound 3.16 µM, first compound 1 µM
[35] = second compound 3.16 µM, first compound 3.16 µM
[36] = second compound 3.16 µM, first compound 10 µM
[37] = second compound 10 µM, first compound 0.0316 µM
[38] = second compound 10 µM, first compound 0.1 µM
[39] = second compound 10 µM, first compound 0.316 µM
[40] = second compound 10 µM, first compound 1 µM
[41] = second compound 10 µM, first compound 3.16 µM
[42] = second compound 10 µM, first compound 10 µM
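Note: spheroids exposed to compounds for seven days before readout.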
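Throughout, for viability, T/C: 100% = DMSO vehicle control viability.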

Which results are given for `CC(Nc1ccc2c(c1)OCCn1cc(N3C(=O)OCC3C(F)F)nc1-2)C(N)=O` (stereo not given) + C#Cc1c(F)ccc2cc(O)cc(-c3ncc4c(N5CC6CCC(C5)N6)nc(OCC56CCCN5CC(F)C6)nc4c3F)c12?
IC50 [1]: > 10000 nM; IC50 [2]: > 10000 nM; IC50 [3]: > 10000 nM; IC50 [4]: > 10000 nM; IC50 [5]: 487 nM; IC50 [6]: 527 nM; viability, T/C [7]: 73.2%; viability, T/C [8]: 101%; viability, T/C [9]: 86.5%; viability, T/C [10]: 60.4%; viability, T/C [11]: 92.9%; viability, T/C [12]: 70.2%; viability, T/C [13]: 87.5%; viability, T/C [14]: 102%; viability, T/C [15]: 73.9%; viability, T/C [16]: 53.5%; viability, T/C [17]: 81.2%; viability, T/C [18]: 65.5%; viability, T/C [19]: 105%; viability, T/C [20]: 109%; viability, T/C [21]: 72.9%; viability, T/C [22]: 55.1%; viability, T/C [23]: 69.2%; viability, T/C [24]: 62.5%; viability, T/C [25]: 114%; viability, T/C [26]: 102%; viability, T/C [27]: 57.2%; viability, T/C [28]: 60.2%; viability, T/C [29]: 47.4%; viability, T/C [30]: 54.6%; viability, T/C [31]: 90.5%; viability, T/C [32]: 80%; viability, T/C [33]: 56.4%; viability, T/C [34]: 38.7%; viability, T/C [35]: 35.6%; viability, T/C [36]: 45.3%; viability, T/C [37]: 60.8%; viability, T/C [38]: 68.9%; viability, T/C [39]: 51.1%; viability, T/C [40]: 46.7%; viability, T/C [41]: 30.7%; viability, T/C [42]: 34.7%

Which results are given for `CC(C)NCC(C(=O)N1CCN(c2ncnc3c2C(C)CC3O)CC1)c1ccc(Cl)cc1` (stereo not given)?
viability, T/C (compound 0.0316 µM): 97.9% [middle of 4 runs]; viability, T/C (compound 0.1 µM): 100% [middle of 4 runs]; viability, T/C (compound 1 µM): 88.7% [middle of 4 runs]; IC50 (curve of compound): > 10000 nM

What does the source list for `CC(C)NCC(C(=O)N1CCN(c2ncnc3c2C(C)CC3O)CC1)c1ccc(Cl)cc1` (stereo not given) + C#Cc1c(F)ccc2cc(O)cc(-c3ncc4c(N5CC6CCC(C5)N6)nc(OCC56CCCN5CC(F)C6)nc4c3F)c12?
IC50 [1]: > 10000 nM; IC50 [2]: > 10000 nM; IC50 [3]: > 10000 nM; IC50 [4]: > 10000 nM; IC50 [5]: 473 nM; IC50 [6]: 1210 nM; viability, T/C [7]: 85.7%; viability, T/C [8]: 129%; viability, T/C [9]: 96%; viability, T/C [10]: 76%; viability, T/C [11]: 80.2%; viability, T/C [12]: 91.4%; viability, T/C [13]: 108%; viability, T/C [14]: 114%; viability, T/C [15]: 80.3%; viability, T/C [16]: 77.3%; viability, T/C [17]: 88%; viability, T/C [18]: 86%; viability, T/C [19]: 104%; viability, T/C [20]: 117%; viability, T/C [21]: 78.1%; viability, T/C [22]: 84.9%; viability, T/C [23]: 71.9%; viability, T/C [24]: 80.5%; viability, T/C [25]: 109%; viability, T/C [26]: 125%; viability, T/C [27]: 76.5%; viability, T/C [28]: 59.5%; viability, T/C [29]: 63.4%; viability, T/C [30]: 52.5%; viability, T/C [31]: 101%; viability, T/C [32]: 83.8%; viability, T/C [33]: 50.7%; viability, T/C [34]: 48.4%; viability, T/C [35]: 38.5%; viability, T/C [36]: 34.7%; viability, T/C [37]: 67.8%; viability, T/C [38]: 76.6%; viability, T/C [39]: 57.6%; viability, T/C [40]: 47.1%; viability, T/C [41]: 44.5%; viability, T/C [42]: 21.1%

What does the source list for `CC1(C)CCC(Nc2ncc(C(F)(F)F)c(-c3c[nH]c4c(P(C)(C)=O)c(C#N)ccc34)n2)CN1` (stereo not given) + C#Cc1c(F)ccc2cc(O)cc(-c3ncc4c(N5CC6CCC(C5)N6)nc(OCC56CCCN5CC(F)C6)nc4c3F)c12?
IC50 [1]: 6.41 nM; IC50 [2]: 6.67 nM; IC50 [3]: 6.82 nM; IC50 [4]: 7.75 nM; IC50 [5]: 11.6 nM; IC50 [6]: 2.98 nM; viability, T/C (second compound 0.0316 µM, first compound 0.000949 µM): 87.7%; viability, T/C (second compound 0.0316 µM, first compound 0.003 µM): 75.5%; viability, T/C (second compound 0.0316 µM, first compound 0.00949 µM): 36.9%; viability, T/C (second compound 0.0316 µM, first compound 0.03 µM): 33.9%; viability, T/C (second compound 0.0316 µM, first compound 0.0949 µM): 35.6%; viability, T/C (second compound 0.0316 µM, first compound 0.3 µM): 36.8%; viability, T/C (second compound 0.1 µM, first compound 0.000949 µM): 77.7%; viability, T/C (second compound 0.1 µM, first compound 0.003 µM): 64%; viability, T/C (second compound 0.1 µM, first compound 0.00949 µM): 44.5%; viability, T/C (second compound 0.1 µM, first compound 0.03 µM): 35.6%; viability, T/C (second compound 0.1 µM, first compound 0.0949 µM): 39.9%; viability, T/C (second compound 0.1 µM, first compound 0.3 µM): 40.6%; viability, T/C (second compound 0.316 µM, first compound 0.000949 µM): 75%; viability, T/C (second compound 0.316 µM, first compound 0.003 µM): 68.5%; viability, T/C (second compound 0.316 µM, first compound 0.00949 µM): 42.5%; viability, T/C (second compound 0.316 µM, first compound 0.03 µM): 42.2%; viability, T/C (second compound 0.316 µM, first compound 0.0949 µM): 43.7%; viability, T/C (second compound 0.316 µM, first compound 0.3 µM): 37.6%; viability, T/C (second compound 1 µM, first compound 0.000949 µM): 65.7%; viability, T/C (second compound 1 µM, first compound 0.003 µM): 64.6%; viability, T/C (second compound 1 µM, first compound 0.00949 µM): 46.1%; viability, T/C (second compound 1 µM, first compound 0.03 µM): 44.3%; viability, T/C (second compound 1 µM, first compound 0.0949 µM): 54%; viability, T/C (second compound 1 µM, first compound 0.3 µM): 43%; viability, T/C (second compound 3.16 µM, first compound 0.000949 µM): 60%; viability, T/C (second compound 3.16 µM, first compound 0.003 µM): 59.3%; viability, T/C (second compound 3.16 µM, first compound 0.00949 µM): 46.5%; viability, T/C (second compound 3.16 µM, first compound 0.03 µM): 45.3%; viability, T/C (second compound 3.16 µM, first compound 0.0949 µM): 50.4%; viability, T/C (second compound 3.16 µM, first compound 0.3 µM): 45.7%; viability, T/C (second compound 10 µM, first compound 0.000949 µM): 62.6%; viability, T/C (second compound 10 µM, first compound 0.003 µM): 50.2%; viability, T/C (second compound 10 µM, first compound 0.00949 µM): 47.2%; viability, T/C (second compound 10 µM, first compound 0.03 µM): 47.4%; viability, T/C (second compound 10 µM, first compound 0.0949 µM): 52.6%; viability, T/C (second compound 10 µM, first compound 0.3 µM): 46.5%
